Assay results as given in article PMC6515479, “An Investigation on Glucuronidation Metabolite Identification, Isozyme Contribution, and Species Differences of GL-V9 In Vitro and In Vivo” (Molecules, 2019).

How the values were obtained:
Type in all cases: in vitro ADME
[1] = Enzyme kinetics of GL-V9 glucuronidation in beagle dog liver microsomes (DLMs); conditions: beagle, dog, liver microsomes, pH 7.4, formation of 5-O-glucuronide GL-V9, protein 0.1 mg/mL, mean ± SD, n = 3
Method: (§1) The composition of the incubation system (200 μL) contained liver microsomes of different species (0.1 mg protein/mL), 5 mM saccharolactone (D-saccharic acid 1,4-lactone monohydrate), 10 mM MgCl2, alamethicin (50 μg/mg protein), Tris-HCl buffer (50 mM, pH 7.4) and GL-V9 (1 μM). After 5 min of preincubation at 37 °C, UDPGA (5 mM) was added to initiate the phase II reaction. Control incubation samples were performed without UDPGA or without substrates (GL-V9). The reaction was terminated by addition of ice-cold methanol (three volumes) after incubation for 1 h at 37 °C. Samples were vortexed, centrifuged at 21,500× g for 10 min and then stored at 4 °C until HPLC-UV-TripleTOF analysis. To confirm that these metabolites are conjugates resulting from glucuronidation reaction, enzymatic hydrolysis of samples was processed. β-glucuronidase (100 KU, Sigma) was added and the hydrolysis was performed overnight at 37 °C. The control samples were carried out without β-glucuronidase under the same condition.
(§2) Enzyme kinetics experiments were carried out in triplicate among five different species, including monkey, beagle dog, rat, mouse, and human. The reaction system and operations are as same as described in Section 4.3. The solutions of GL-V9 were selected over a range of concentrations (0.05, 0.2, 0.5, 1, 2, 5, 10, 20 μM). […]

[2] = test system: beagle dog liver microsomes (DLMs); experiment: as above; conditions: formation of 5-O-glucuronide GL-V9, protein 0.1 mg/mL, mean ± SD, n = 3
Method: as §1, §2

rUGT1A4 = target: T1, rUGT1A4 (Homo sapiens, UniProt P22310); experiment: UGT phenotyping of GL-V9 glucuronidation, rUGT1A4; conditions: GL-V9 0.5, 1, 5 μM, 37 °C, 1 h
T1 construct: purchased Corning (Woburn, MA, USA)
T1 sequence (P22310 29-534): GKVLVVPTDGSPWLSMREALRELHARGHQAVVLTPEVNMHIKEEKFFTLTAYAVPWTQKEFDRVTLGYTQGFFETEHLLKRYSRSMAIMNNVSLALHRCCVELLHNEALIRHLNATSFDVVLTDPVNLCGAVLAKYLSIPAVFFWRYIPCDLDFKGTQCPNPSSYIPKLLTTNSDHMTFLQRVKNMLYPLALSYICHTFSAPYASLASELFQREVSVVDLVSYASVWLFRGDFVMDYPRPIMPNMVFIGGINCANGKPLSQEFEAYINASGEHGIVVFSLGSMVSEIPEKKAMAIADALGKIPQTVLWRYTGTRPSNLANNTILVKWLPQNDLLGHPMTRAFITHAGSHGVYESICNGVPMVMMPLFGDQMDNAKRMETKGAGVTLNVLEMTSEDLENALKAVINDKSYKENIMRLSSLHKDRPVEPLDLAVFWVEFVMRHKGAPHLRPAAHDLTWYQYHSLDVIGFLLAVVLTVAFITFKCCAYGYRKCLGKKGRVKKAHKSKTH
Method: as §1
(§3) Twelve human recombinant UGT isoforms (rUGT1A1, rUGT1A3, rUGT1A4, rUGT1A6, rUGT1A7, rUGT1A8, rUGT1A9, rUGT1A10, rUGT2B4, rUGT2B7, rUGT2B15, and rUGT2B17) were employed to identify the main UGT enzyme(s) responsible for glucuronidation of GL-V9 under mixture conditions as described in Section 4.3. […]

rUGT1A10 = target: T2, rUGT1A10 (Homo sapiens, UniProt Q9HAW8); experiment: UGT phenotyping of GL-V9 glucuronidation, rUGT1A10; conditions: GL-V9 0.5, 1, 5 μM, 37 °C, 1 h
T2 construct: purchased Corning (Woburn, MA, USA)
T2 sequence (Q9HAW8 26-530): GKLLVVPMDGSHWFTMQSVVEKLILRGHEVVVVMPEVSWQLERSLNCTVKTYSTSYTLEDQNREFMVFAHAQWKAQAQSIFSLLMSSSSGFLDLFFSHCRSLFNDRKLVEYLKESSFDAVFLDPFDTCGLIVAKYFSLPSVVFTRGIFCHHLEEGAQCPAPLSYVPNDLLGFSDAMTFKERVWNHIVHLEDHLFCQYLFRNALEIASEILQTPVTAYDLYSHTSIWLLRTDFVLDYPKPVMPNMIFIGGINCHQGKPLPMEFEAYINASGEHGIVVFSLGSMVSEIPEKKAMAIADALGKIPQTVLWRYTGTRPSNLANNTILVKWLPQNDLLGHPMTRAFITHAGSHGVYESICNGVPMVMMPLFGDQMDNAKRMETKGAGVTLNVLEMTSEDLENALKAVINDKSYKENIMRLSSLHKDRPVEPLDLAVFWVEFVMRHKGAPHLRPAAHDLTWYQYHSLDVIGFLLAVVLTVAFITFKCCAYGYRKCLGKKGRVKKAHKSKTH
Method: as §1, §3

rUGT2B7 = target: T3, rUGT2B7 (Homo sapiens, UniProt P16662); experiment: UGT phenotyping of GL-V9 glucuronidation, rUGT2B7; conditions: GL-V9 0.5, 1, 5 μM, 37 °C, 1 h
T3 construct: purchased Corning (Woburn, MA, USA)
T3 sequence (P16662 24-529): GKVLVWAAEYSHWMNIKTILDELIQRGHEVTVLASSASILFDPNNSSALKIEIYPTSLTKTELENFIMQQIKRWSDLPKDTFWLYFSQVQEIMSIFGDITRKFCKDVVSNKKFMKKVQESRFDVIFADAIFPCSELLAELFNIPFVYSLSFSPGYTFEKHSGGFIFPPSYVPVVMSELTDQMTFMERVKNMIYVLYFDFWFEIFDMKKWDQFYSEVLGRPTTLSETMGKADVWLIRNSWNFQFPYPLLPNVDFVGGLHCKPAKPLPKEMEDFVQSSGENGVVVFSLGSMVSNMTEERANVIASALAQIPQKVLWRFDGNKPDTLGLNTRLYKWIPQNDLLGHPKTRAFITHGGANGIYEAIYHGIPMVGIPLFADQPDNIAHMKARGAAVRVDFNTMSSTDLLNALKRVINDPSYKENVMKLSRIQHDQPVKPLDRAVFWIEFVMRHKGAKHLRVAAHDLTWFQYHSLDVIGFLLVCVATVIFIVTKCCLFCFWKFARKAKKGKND
Method: as §1, §3

COc1c(OCCCCN2CCCC2)cc(O)c2c(=O)cc(-c3ccccc3)oc12 [GL-V9]
Km at 1 h [1]: 12.5 ± 1.43 µM
Vmax [2]: 22.03 ± 0.42 pmol/min/mg
Metabolism rate (glucuronidation) (rUGT1A4): too low to be biologically relevant
Metabolism rate (glucuronidation) (rUGT1A10): too low to be biologically relevant
Catalytic activity in the production of 5-O-glucuronide GL-V9 (rUGT2B7): did not show apparent catalytic activity
